From US5593984A, “Cephalosporin derivatives” (Yuhan Corporation, priority 1992, dated 1997)
≈ marks a conversion by molar mass, not a printed value.

Assays:
Format in all cases: cell-based
[1] = system: S. epidermidis ATCC 12228; test: MIC by agar dilution, S. epidermidis ATCC 12228; conditions: Staphylococcus epidermidis, ATCC12228, 17 h; S. epidermidis ATCC 12228; agar dilution, Mueller-Hinton agar; read-out: Minimal Inhibitory Concentration (MIC)
Summary of the method: (§1)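 MIC is the endpoint, obtained by agar dilution after 17±1 hours at 35°-37° C. on Mueller-Hinton agar containing doubling compound concentrations; strains inoculated at 10^6 CFU per ml.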

Ps. aeruginosa DY-2 = test: MIC by agar dilution, Ps. aeruginosa DY-2; conditions: Pseudomonas aeruginosa, DY2, 17 h; Ps. aeruginosa DY-2; agar dilution, Mueller-Hinton agar; read-out: Minimal Inhibitory Concentration (MIC)
Summary of the method: as §1

Staph. aureus C-57 = test: MIC by agar dilution, Staph. aureus C-57; conditions: Staphylococcus aureus, C57, 17 h, Mueller-Hinton agar, read-out: Minimal Inhibitory Concentration (MIC)
Summary of the method: as §1

[2] = system: Ps. aeruginosa NCTC 10490; test: MIC by agar dilution, Ps. aeruginosa NCTC 10490; conditions: Pseudomonas aeruginosa, NCTC10490, 17 h, Mueller-Hinton agar, read-out: Minimal Inhibitory Concentration (MIC)
Summary of the method: as §1

B. subtilis ATCC 6633 = test: MIC by agar dilution, B. subtilis ATCC 6633; conditions: Bacillus subtilis, ATCC6633, 17 h; B. subtilis ATCC 6633; agar dilution, Mueller-Hinton agar; read-out: Minimal Inhibitory Concentration (MIC)
Summary of the method: as §1

P. vulgaris NCTC 8313 = test: MIC by agar dilution, P. vulgaris NCTC 8313; conditions: Proteus vulgaris, NCTC8313, 17 h; P. vulgaris NCTC 8313; agar dilution, Mueller-Hinton agar; read-out: Minimal Inhibitory Concentration (MIC)
Summary of the method: as §1

Staph. aureus ATCC 6538P = test: MIC by agar dilution, Staph. aureus ATCC 6538P; conditions: Staphylococcus aureus, ATCC6538P, 17 h; Staph. aureus ATCC 6538P; agar dilution, Mueller-Hinton agar; read-out: Minimal Inhibitory Concentration (MIC)
Summary of the method: as §1

Ent. cloacae IFO 13535 = test: MIC by agar dilution, Ent. cloacae IFO 13535; conditions: Enterobacter cloacae, IFO13535, 17 h; Ent. cloacae IFO 13535; agar dilution, Mueller-Hinton agar; read-out: Minimal Inhibitory Concentration (MIC)
Summary of the method: as §1

E. coli DY-1 = test: MIC by agar dilution, E. coli DY-1; conditions: Escherichia coli, DY1, 17 h; E. coli DY-1; agar dilution, Mueller-Hinton agar; read-out: Minimal Inhibitory Concentration (MIC)
Summary of the method: as §1

[3] = system: Ps. aeruginosa ATCC 10145; test: MIC by agar dilution, Ps. aeruginosa ATCC 10145; conditions: Pseudomonas aeruginosa, ATCC10145, 17 h, Mueller-Hinton agar, read-out: Minimal Inhibitory Concentration (MIC)
Summary of the method: as §1

[4] = system: Ser. marcescens IFO 12648; test: MIC by agar dilution, Ser. marcescens IFO 12648; conditions: Serratia marcescens, IFO12648, 17 h; Ser. marcescens IFO 12648; agar dilution, Mueller-Hinton agar; read-out: Minimal Inhibitory Concentration (MIC)
Summary of the method: as §1

M. morganii DY-1 = test: MIC by agar dilution, M. morganii DY-1; conditions: Morganella morganii, DY1, 17 h; M. morganii DY-1; agar dilution, Mueller-Hinton agar; read-out: Minimal Inhibitory Concentration (MIC)
Summary of the method: as §1

Prov. stuartii IFO 12930 = test: MIC by agar dilution, Prov. stuartii IFO 12930; conditions: Providencia stuartii, IFO12930, 17 h, Mueller-Hinton agar, read-out: Minimal Inhibitory Concentration (MIC)
Summary of the method: as §1

Staph. aureus Smith = test: MIC by agar dilution, Staph. aureus Smith; conditions: Staphylococcus aureus, 17 h, Mueller-Hinton agar, read-out: Minimal Inhibitory Concentration (MIC)
Summary of the method: as §1

Staph. aureus C-5216 = test: MIC by agar dilution, Staph. aureus C-5216; conditions: Staphylococcus aureus, C5216, 17 h, Mueller-Hinton agar, read-out: Minimal Inhibitory Concentration (MIC)
Summary of the method: as §1

Ent. aerogenes IFO 12979 = test: MIC by agar dilution, Ent. aerogenes IFO 12979; conditions: Klebsiella aerogenes, IFO12979, 17 h, Mueller-Hinton agar, read-out: Minimal Inhibitory Concentration (MIC)
Summary of the method: as §1

E. coli No. 29 = test: MIC by agar dilution, E. coli No. 29; conditions: Escherichia coli, 17 h; E. coli No. 29; agar dilution, Mueller-Hinton agar; read-out: Minimal Inhibitory Concentration (MIC)
Summary of the method: as §1

E. coli NIHJ JC-2 = test: MIC by agar dilution, E. coli NIHJ JC-2; conditions: Escherichia coli, NIHJJC2, 17 h; E. coli NIHJ JC-2; agar dilution, Mueller-Hinton agar; read-out: Minimal Inhibitory Concentration (MIC)
Summary of the method: as §1

Staph. aureus C-5113 = test: MIC by agar dilution, Staph. aureus C-5113; conditions: Staphylococcus aureus, C5113, 17 h, Mueller-Hinton agar, read-out: Minimal Inhibitory Concentration (MIC)
Summary of the method: as §1

K. pneumoniae NCTC 9632 = test: MIC by agar dilution, K. pneumoniae NCTC 9632; conditions: Klebsiella pneumoniae, NCTC9632, 17 h; K. pneumoniae NCTC 9632; agar dilution, Mueller-Hinton agar; read-out: Minimal Inhibitory Concentration (MIC)
Summary of the method: as §1

MIC [1] [µg/mL]	MIC (Ps. aeruginosa DY-2) [µg/mL]	MIC (Staph. aureus C-57) [µg/mL]	MIC [2] [µg/mL]	MIC (B. subtilis ATCC 6633) [µg/mL]	MIC (P. vulgaris NCTC 8313) [µg/mL]	MIC (Staph. aureus ATCC 6538P) [µg/mL]	MIC (Ent. cloacae IFO 13535) [µg/mL]	MIC (E. coli DY-1) [µg/mL]	MIC [3] [µg/mL]	MIC [4] [µg/mL]	MIC (M. morganii DY-1) [µg/mL]	MIC (Prov. stuartii IFO 12930) [µg/mL]	MIC (Staph. aureus Smith) [µg/mL]	MIC (Staph. aureus C-5216) [µg/mL]	MIC (Ent. aerogenes IFO 12979) [µg/mL]	MIC (E. coli No. 29) [µg/mL]	MIC (E. coli NIHJ JC-2) [µg/mL]	MIC (Staph. aureus C-5113) [µg/mL]	MIC (K. pneumoniae NCTC 9632) [µg/mL]	Structure (SMILES)
0.05 (≈ 0.092 µM)	3.13 (≈ 5.76 µM)	50 (≈ 92 µM)	0.1 (≈ 0.184 µM)	0.1 (≈ 0.184 µM)	0.012 (≈ 0.0221 µM)	0.2 (≈ 0.368 µM)	0.05 (≈ 0.092 µM)	≤ 0.006	0.39 (≈ 0.717 µM)	0.012 (≈ 0.0221 µM)	0.012 (≈ 0.0221 µM)	≤ 0.006	0.78 (≈ 1.43 µM)	0.78 (≈ 1.43 µM)	≤ 0.006	≤ 0.006	≤ 0.006	3.13 (≈ 5.76 µM)	0.012 (≈ 0.0221 µM)	CON=C(C(=O)NC1C(=O)N2C(C(=O)[O-])=C(C[n+]3ccn4ccc(CO)c4c3)CSC12)c1csc(N)n1 (stereo not drawn) [Ex. 30, 7-β-[(Z)-2-(2-aminothiazol-4-yl)2-methoxyiminoacetamido]-3-(8-hydroxymethylpyrrolo[1,2-a]pyrazinium-2-yl)methyl-3-cephem-4-carboxylate]
0.1 (≈ 0.17 µM)	3.13 (≈ 5.31 µM)	25 (≈ 42.4 µM)	0.2 (≈ 0.339 µM)	0.1 (≈ 0.17 µM)	0.012 (≈ 0.0203 µM)	0.1 (≈ 0.17 µM)	1.56 (≈ 2.65 µM)	≤ 0.006	0.78 (≈ 1.32 µM)	0.012 (≈ 0.0203 µM)	0.025 (≈ 0.0424 µM)	≤ 0.006	0.2 (≈ 0.339 µM)	0.78 (≈ 1.32 µM)	0.012 (≈ 0.0203 µM)	≤ 0.006	0.012 (≈ 0.0203 µM)	0.39 (≈ 0.661 µM)	0.012 (≈ 0.0203 µM)	CON=C(C(=O)NC1C(=O)N2C(C(=O)[O-])=C(C[n+]3ccn4c(SCCO)ccc4c3)CSC12)c1csc(N)n1 (stereo not drawn) [Ex. 8, 7-β-[(Z)-2-(2-aminothiazol-4-yl)-2-methoxyiminoacetamido]-3-[6-(2-hydroxyethylthio)pyrrolo[1,2-a]pyrazinium-2-yl]methyl-3-cephem-4-carboxylate]
0.1 (≈ 0.186 µM)	3.13 (≈ 5.81 µM)	25 (≈ 46.4 µM)	0.39 (≈ 0.724 µM)	0.2 (≈ 0.371 µM)	≤ 0.006	0.39 (≈ 0.724 µM)	0.05 (≈ 0.0928 µM)	0.012 (≈ 0.0223 µM)	0.78 (≈ 1.45 µM)	0.012 (≈ 0.0223 µM)	0.025 (≈ 0.0464 µM)	≤ 0.006	1.56 (≈ 2.9 µM)	0.78 (≈ 1.45 µM)	0.012 (≈ 0.0223 µM)	0.012 (≈ 0.0223 µM)	0.012 (≈ 0.0223 µM)	0.78 (≈ 1.45 µM)	0.025 (≈ 0.0464 µM)	CON=C(C(=O)NC1C(=O)N2C(C(=O)[O-])=C(C[n+]3ccn4c(C#N)ccc4c3)CSC12)c1csc(N)n1 (stereo not drawn) [Ex. 13, 7-β-[(Z)-2-(2-aminothiazol-4-yl)-2-methoxyiminoacetamido]-3-(6-cyanopyrrolo[1,2-a]pyrazinium-2-yl)methyl-3-cephem-4-carboxylate]
